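How tested: cells in 96-well plates exposed to compound for 48 hours at five concentrations. GI50 is the concentration that inhibits growth by half.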 Calls of active or inactive are those of the source. Cut-off read from the data, not from the text of the source: active = GI50 up to about 1.1 µM and inactive = higher.
Key:
Experiment in all cases: NCI-60 cell line screen, 48 h
BT-549 = system: BT-549
K562 = system: K562
ACHN = system: ACHN
SNB-19 = system: SNB-19
KM12 = system: KM12
HOP-92 = system: HOP-92
SW-620 = system: SW-620
U-251 = system: U-251
SNB-75 = system: SNB-75
NCI-H460 = system: NCI-H460
UACC-62 = system: UACC-62
OVCAR-3 = system: OVCAR-3
UACC-257 = system: UACC-257
MCF7 = system: MCF7
HCT-116 = system: HCT-116
NCI-H522 = system: NCI-H522
COLO 205 = system: COLO 205
A549 = system: A549
HCC 2998 = system: HCC 2998
RPMI-8226 = system: RPMI-8226

Question: For `O=S(=O)(O)c1ccc2cc(/N=N/c3c(O)ccc4ccccc34)ccc2c1`, which GI50 (BT-549) is on record?
Answer: The GI50 was > 100 µM (inactive).

Question: And the GI50 (K562)?
Answer: The GI50 was > 100 µM (inactive).

Question: And the GI50 (ACHN)?
Answer: Its GI50 is > 100 µM (inactive).

Question: And the GI50 (SNB-19)?
Answer: Its GI50 is > 100 µM (inactive).

Question: And the GI50 (KM12)?
Answer: The GI50 was 97.5 µM (inactive).

Question: And the GI50 (HOP-92)?
Answer: Its GI50 is > 100 µM (inactive).

Question: And the GI50 (SW-620)?
Answer: The GI50 was > 100 µM (inactive).

Question: What about the GI50 (U-251) of the same molecule?
Answer: Its GI50 is > 100 µM (inactive).

Question: What about the GI50 (SNB-75) of the same molecule?
Answer: Its GI50 is > 100 µM (inactive).

Question: What about the GI50 (NCI-H460) of the same molecule?
Answer: Its GI50 is > 100 µM (inactive).

Question: And the GI50 (UACC-62)?
Answer: The GI50 was > 100 µM (inactive).

Question: And the GI50 (OVCAR-3)?
Answer: Its GI50 is > 100 µM (inactive).

Question: What about the GI50 (UACC-257) of the same molecule?
Answer: Its GI50 is > 100 µM (inactive).

Question: And the GI50 (MCF7)?
Answer: The GI50 was > 100 µM (inactive).

Question: What about the GI50 (HCT-116) of the same molecule?
Answer: The GI50 was > 100 µM (inactive).

Question: And the GI50 (NCI-H522)?
Answer: The GI50 was > 100 µM (inactive).

Question: What about the GI50 (COLO 205) of the same molecule?
Answer: The GI50 was > 100 µM (inactive).

Question: And the GI50 (A549)?
Answer: The GI50 was > 100 µM (inactive).

Question: What about the GI50 (HCC 2998) of the same molecule?
Answer: Its GI50 is > 100 µM (inactive).

Question: For `COc1cc(C(=O)N(C(=S)OC23CC4CC(CC(C4)C2)C3)c2ccccc2)cc(OC)c1OC`, which GI50 (BT-549) is on record?
Answer: Its GI50 is 33 µM (inactive).

Question: And the GI50 (K562)?
Answer: The GI50 was 2.75 µM (inactive).

Question: And the GI50 (ACHN)?
Answer: Its GI50 is 29.6 µM (inactive).

Question: What about the GI50 (SNB-19) of the same molecule?
Answer: The GI50 was 34.6 µM (inactive).

Question: And the GI50 (KM12)?
Answer: The GI50 was 26.5 µM (inactive).

Question: And the GI50 (HOP-92)?
Answer: Its GI50 is 21 µM (inactive).

Question: And the GI50 (SW-620)?
Answer: The GI50 was 22.7 µM (inactive).

Question: And the GI50 (U-251)?
Answer: Its GI50 is 19 µM (inactive).

Question: What about the GI50 (SNB-75) of the same molecule?
Answer: Its GI50 is 66.1 µM (inactive).

Question: And the GI50 (NCI-H460)?
Answer: The GI50 was 27.1 µM (inactive).

Question: And the GI50 (UACC-62)?
Answer: Its GI50 is 22 µM (inactive).

Question: And the GI50 (OVCAR-3)?
Answer: The GI50 was 28.1 µM (inactive).

Question: What about the GI50 (UACC-257) of the same molecule?
Answer: Its GI50 is 26.4 µM (inactive).

Question: What about the GI50 (MCF7) of the same molecule?
Answer: Its GI50 is 29.4 µM (inactive).

Question: And the GI50 (HCT-116)?
Answer: Its GI50 is 16.1 µM (inactive).

Question: And the GI50 (NCI-H522)?
Answer: Its GI50 is 3.95 µM (inactive).

Question: And the GI50 (COLO 205)?
Answer: The GI50 was 16.4 µM (inactive).

Question: What about the GI50 (A549) of the same molecule?
Answer: Its GI50 is 26.1 µM (inactive).

Question: What about the GI50 (HCC 2998) of the same molecule?
Answer: Its GI50 is 23.4 µM (inactive).

Question: Which GI50 (BT-549) does the source give for `COc1ccc(C2CC(c3cc4c(C)c(C(=O)c5ccccc5)oc4cc3O)=Nc3ccccc3S2)cc1OC` (stereo unspecified) here?
Answer: The GI50 was > 56.5 µM (inactive).

Question: And the GI50 (K562)?
Answer: The GI50 was > 72.9 µM (inactive).

Question: And the GI50 (ACHN)?
Answer: The GI50 was > 65.8 µM (inactive).

Question: What about the GI50 (SNB-19) of the same molecule?
Answer: The GI50 was 48.8 µM (inactive).

Question: And the GI50 (HOP-92)?
Answer: Its GI50 is 20.3 µM (inactive).

Question: What about the GI50 (RPMI-8226) of the same molecule?
Answer: The GI50 was > 91.6 µM (inactive).

Question: What about the GI50 (SW-620) of the same molecule?
Answer: The GI50 was > 84.7 µM (inactive).

Question: What about the GI50 (U-251) of the same molecule?
Answer: Its GI50 is > 65 µM (inactive).

Question: And the GI50 (SNB-75)?
Answer: Its GI50 is 73.6 µM (inactive).

Question: And the GI50 (NCI-H460)?
Answer: The GI50 was > 100 µM (inactive).

Question: What about the GI50 (UACC-62) of the same molecule?
Answer: Its GI50 is > 51.4 µM (inactive).

Question: What about the GI50 (UACC-257) of the same molecule?
Answer: The GI50 was > 100 µM (inactive).

Question: And the GI50 (MCF7)?
Answer: Its GI50 is > 64 µM (inactive).

Question: What about the GI50 (HCT-116) of the same molecule?
Answer: The GI50 was > 90.4 µM (inactive).

Question: What about the GI50 (NCI-H522) of the same molecule?
Answer: Its GI50 is 19.1 µM (inactive).

Question: And the GI50 (COLO 205)?
Answer: The GI50 was > 100 µM (inactive).

Question: And the GI50 (A549)?
Answer: The GI50 was 96.8 µM (inactive).

Question: And the GI50 (HCC 2998)?
Answer: The GI50 was > 100 µM (inactive).

Question: `C=C1[C@H](OCC(C)C)[C@@H](OCC(C)C)[C@@H](O)C(C)(C)/C=C/[C@H](C)C(=O)[C@@]2(O)C[C@H](C)[C@H](O)[C@@H]2[C@H]1OCC(C)C` was tested. Which GI50 (BT-549) did it give?
Answer: The GI50 was > 7.5 µM (inactive).

Question: What about the GI50 (K562) of the same molecule?
Answer: Its GI50 is 0.538 µM (active).

Question: And the GI50 (ACHN)?
Answer: The GI50 was > 7.5 µM (inactive).

Question: What about the GI50 (SNB-19) of the same molecule?
Answer: Its GI50 is > 7.5 µM (inactive).

Question: What about the GI50 (KM12) of the same molecule?
Answer: Its GI50 is > 7.5 µM (inactive).

Question: What about the GI50 (HOP-92) of the same molecule?
Answer: The GI50 was > 7.5 µM (inactive).

Question: What about the GI50 (SW-620) of the same molecule?
Answer: The GI50 was 7.38 µM (inactive).

Question: What about the GI50 (U-251) of the same molecule?
Answer: The GI50 was > 7.5 µM (inactive).

Question: And the GI50 (SNB-75)?
Answer: Its GI50 is 3.02 µM (inactive).

Question: What about the GI50 (NCI-H460) of the same molecule?
Answer: The GI50 was 0.555 µM (active).

Question: And the GI50 (UACC-62)?
Answer: Its GI50 is 7.19 µM (inactive).

Question: And the GI50 (OVCAR-3)?
Answer: Its GI50 is > 7.5 µM (inactive).

Question: And the GI50 (UACC-257)?
Answer: Its GI50 is > 7.5 µM (inactive).

Question: What about the GI50 (MCF7) of the same molecule?
Answer: The GI50 was > 7.5 µM (inactive).

Question: What about the GI50 (HCT-116) of the same molecule?
Answer: Its GI50 is > 7.5 µM (inactive).

Question: What about the GI50 (NCI-H522) of the same molecule?
Answer: Its GI50 is > 7.5 µM (inactive).

Question: What about the GI50 (COLO 205) of the same molecule?
Answer: The GI50 was 2.13 µM (inactive).

Question: And the GI50 (HCC 2998)?
Answer: Its GI50 is > 7.5 µM (inactive).

Question: `CC1(C)CCCC2(C)C3=C(CCC12)C(=O)OC3` (stereo unspecified) was tested. Which GI50 (BT-549) did it give?
Answer: Its GI50 is 80.5 µM (inactive).

Question: What about the GI50 (ACHN) of the same molecule?
Answer: Its GI50 is > 100 µM (inactive).

Question: What about the GI50 (KM12) of the same molecule?
Answer: The GI50 was > 100 µM (inactive).

Question: And the GI50 (HOP-92)?
Answer: The GI50 was > 100 µM (inactive).

Question: What about the GI50 (RPMI-8226) of the same molecule?
Answer: The GI50 was 19.6 µM (inactive).

Question: And the GI50 (SW-620)?
Answer: The GI50 was > 100 µM (inactive).

Question: What about the GI50 (U-251) of the same molecule?
Answer: Its GI50 is > 100 µM (inactive).

Question: And the GI50 (SNB-75)?
Answer: Its GI50 is > 100 µM (inactive).

Question: What about the GI50 (UACC-62) of the same molecule?
Answer: The GI50 was 93.5 µM (inactive).

Question: What about the GI50 (OVCAR-3) of the same molecule?
Answer: The GI50 was > 100 µM (inactive).

Question: And the GI50 (UACC-257)?
Answer: Its GI50 is > 100 µM (inactive).

Question: What about the GI50 (MCF7) of the same molecule?
Answer: Its GI50 is > 100 µM (inactive).

Question: And the GI50 (HCT-116)?
Answer: Its GI50 is > 100 µM (inactive).

Question: And the GI50 (NCI-H522)?
Answer: Its GI50 is > 100 µM (inactive).

Question: And the GI50 (COLO 205)?
Answer: Its GI50 is > 100 µM (inactive).

Question: And the GI50 (A549)?
Answer: Its GI50 is > 100 µM (inactive).

Question: And the GI50 (HCC 2998)?
Answer: The GI50 was > 100 µM (inactive).
